The values below come from patent publication US8822534B2, “Substituted aminopropionic derivatives as neprilysin inhibitors” (priority 2009, dated 2014).

The target in the assay is recombinant human neutral endopeptidase (NEP, EC 3.4.24.11) (Homo sapiens (Human), UniProt P08473). In words: in vitro inhibition of recombinant human neutral endopeptidase (fluorescence lifetime assay). The format is biochemical. The text has this: The activity of a compound according to the present invention can be assessed by the following in vitro & in vivo methods and/or by the following in vitro & in vivo methods well-described in the art. See A fluorescence lifetime-based assay for protease inhibitor profiling on human kallikrein 7 Doering K, Meder G, Hinnenberger M, Woelcke J, Mayr L M, Hassiepen U Biomol Screen.
In particular, the in vitro inhibition of recombinant human neutral endopeptidase (NEP, EC 3.4.24.11) can be determined as follows: […]

Chain of recombinant human neutral endopeptidase (NEP, EC 3.4.24.11) (P08473 whole entry): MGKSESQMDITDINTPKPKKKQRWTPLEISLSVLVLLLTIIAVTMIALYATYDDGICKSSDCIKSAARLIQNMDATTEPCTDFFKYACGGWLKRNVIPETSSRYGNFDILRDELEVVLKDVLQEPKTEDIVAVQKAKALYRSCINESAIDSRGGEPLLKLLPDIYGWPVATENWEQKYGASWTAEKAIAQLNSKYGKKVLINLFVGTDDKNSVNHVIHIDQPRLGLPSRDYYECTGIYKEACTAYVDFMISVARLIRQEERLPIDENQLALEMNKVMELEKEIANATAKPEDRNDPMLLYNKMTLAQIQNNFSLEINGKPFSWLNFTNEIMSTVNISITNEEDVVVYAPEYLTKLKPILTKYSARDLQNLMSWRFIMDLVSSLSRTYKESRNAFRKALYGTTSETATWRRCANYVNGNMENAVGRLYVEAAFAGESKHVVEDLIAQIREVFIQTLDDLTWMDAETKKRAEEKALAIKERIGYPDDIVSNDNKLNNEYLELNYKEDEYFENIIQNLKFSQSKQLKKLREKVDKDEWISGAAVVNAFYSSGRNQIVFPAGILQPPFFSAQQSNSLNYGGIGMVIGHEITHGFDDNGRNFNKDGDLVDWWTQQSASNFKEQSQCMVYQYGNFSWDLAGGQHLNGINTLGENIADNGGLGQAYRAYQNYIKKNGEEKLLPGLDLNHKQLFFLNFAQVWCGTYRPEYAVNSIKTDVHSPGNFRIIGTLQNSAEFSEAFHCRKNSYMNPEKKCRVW

The IC50 is the midpoint of a concentration-inhibition curve. Regarding `O=C(O)C[C@@H](Cc1ccc(-c2cccc(Cl)c2)cc1)NC(=O)CCC(=O)Oc1ccc2c(c1)CCC2` [Example 3-27], the IC50 was found to be 15 nM.
